Measured values: PMC12190468, “Designing New Chimeric Proline-Rich Antimicrobial Peptides to Enhance Efficacy Toward the ESKAPE+E: Beyond Sequence Extension” (Biomolecules, 2025)
Where two headings read alike, the source gives them in different places. Ends that are not written are not given here.

Assays:
E. coli BW 25113 [1] = format: cell-based, Escherichia coli; conditions: ≥99.9% reduction of viability, after 18 h at 37 °C, mode of at least three independent experiments
Method: (§1) Reference bacterial strains, including Escherichia coli BW25113, Escherichia coli ATCC 25922, Klebsiella pneumoniae ATCC 700603, Acinetobacter baumannii ATCC 19606, Enterobacter cloacae ATCC 13047, Pseudomonas aeruginosa ATCC 27853, Staphylococcus aureus ATCC 25923, and Enterococcus faecium ATCC 19434, were obtained from the American Type Culture Collection (ATCC) in Manassas, VA, USA. Strains were stored at −80 °C in glycerol stocks until use. For all experiments, cultures were grown in sterile MHB (Difco Inc., Becton Dickinson, Sparks, MD, USA). Overnight cultures were incubated at 37 °C for approximately 18 h under shacking (140 rpm, then diluted 1:30 in fresh MHB and again shaken at 140 rpm for ~2 h to reach the mid-log phase (OD ~0.3 at 600 nm). The bacterial cultures were then diluted to the desired concentration for experiments. E. coli BW25113 ΔsbmA (Keio collection) was grown in MHB with the addition of 50 μg/mL kanamycin (Sigma, Milan, Italy).
(§2) The Minimal Bactericidal Concentration (MBC) was determined by plating 25 μL from clear MIC wells onto MH-agar Petri dishes (Difco Inc., Becton Dickinson, Sparks, MD, USA), followed by overnight incubation at 37 °C. The MBC was the lowest compound concentration, reducing bacterial viability by ≥99.9%. Results were based on at least three independent experiments (n ≥ 3).

E. coli ATCC 25922 [2] = format: cell-based, Escherichia coli
Method: as §1, §2

[3] = tested on: K. pneumoniae ATCC 700603; format: cell-based, Klebsiella pneumoniae
Method: as §1, §2

A. baumannii ATCC 19606 [4] = format: cell-based, Acinetobacter baumannii
Method: as §1, §2

E. faecium ATCC 19434 [5] = format: cell-based, Enterococcus faecium
Method: as §1, §2

P. aeruginosa ATCC 27853 [6] = format: cell-based, Pseudomonas aeruginosa
Method: as §1, §2

E. cloacae ATCC 13047 [7] = format: cell-based, Enterobacter cloacae
Method: as §1
(§3) Antimicrobial activity was assessed using the Minimum Inhibitory Concentration (MIC) assay, following CLSI guidelines. Briefly, peptides were serially diluted in MHB across a 96-well round-bottom plate (Sarstedt, Milan, Italy), starting with 50 μL in the first well. A mid-log bacterial culture was diluted to 5 × 10^5 CFU/mL, and 50 μL of this suspension was added to each well (except the MHB sterility control wells). […] MIC values were confirmed by at least three independent experiments (n ≥ 3).

E. coli BW 25113 [8] = format: cell-based, Escherichia coli; conditions: full MHB, 18 h at 37 °C, mode of at least three independent experiments
Method: as §1, §3

E. coli ATCC 25922 [9] = format: cell-based, Escherichia coli; remark: listed apart in the source
Method: as §1, §3

E. coli BW 25113 ΔsbmA = format: cell-based, Escherichia coli; conditions: full MHB, 18 h at 37 °C, mode of at least three independent experiments
Method: as §1, §3

E. cloacae ATCC 13047 [10] = format: cell-based, Enterobacter cloacae; remark: listed apart in the source
Method: as §1, §2

S. aureus ATCC 25923 [11] = format: cell-based, Staphylococcus aureus
Method: as §1, §2

E. faecium ATCC 19434 [12] = format: cell-based, Enterococcus faecium; remark: listed apart in the source
Method: as §1, §3

P. aeruginosa ATCC 27853 [13] = format: cell-based, Pseudomonas aeruginosa; remark: listed apart in the source
Method: as §1, §3

S. aureus ATCC 25923 [14] = format: cell-based, Staphylococcus aureus; conditions: ATCC 25923, 18 h
Method: as §1, §3

A. baumannii ATCC 19606 [15] = format: cell-based, Acinetobacter baumannii; conditions: ATCC 19606, 18 h
Method: as §1, §3

[16] = tested on: K. pneumoniae ATCC 700603; format: cell-based, Klebsiella pneumoniae; conditions: ATCC 700603, 18 h
Method: as §1, §3

Row | Sequence | MBC (E. coli BW 25113 [1]) [µM] | MIC (E. coli BW 25113 [8]) [µM] | MIC (E. coli BW 25113 ΔsbmA) [µM] | MIC (S. aureus ATCC 25923 [14]) [µM] | MIC (geometric mean) (S. aureus ATCC 25923 [14]) | MBC (E. faecium ATCC 19434 [5]; ATCC 19434, 18 h) [µM] | MBC (P. aeruginosa ATCC 27853 [6]; ATCC 27853, 18 h) [µM] | MIC (E. coli ATCC 25922 [9]; ATCC 25922, 18 h) [µM] | MIC (geometric mean) (E. coli ATCC 25922 [9]; ATCC 25922, 18 h) | MBC (E. cloacae ATCC 13047 [10]; ATCC 13047, 18 h) [µM] | MBC (S. aureus ATCC 25923 [11]; ATCC 25923, 18 h) [µM] | MIC (P. aeruginosa ATCC 27853 [13]; ATCC 27853, 18 h) [µM] | MIC (geometric mean) (P. aeruginosa ATCC 27853 [13]; ATCC 27853, 18 h) | MIC (A. baumannii ATCC 19606 [15]) [µM] | other results
1 | WRIRRRWPRLPRPRWR [Peptide B7-005] | 2 | 1 | 2 |  |  |  |  |  |  |  |  |  |  |  | MBC (E. coli ATCC 25922 [2]; E. coli ATCC 25922, ≥99.9% reduction of viability, after 18 h at 37 °C, mode of at least three independent experiments): 2 µM; MBC ([3]; K. pneumoniae ATCC 700603, ≥99.9% reduction of viability, after 18 h at 37 °C, mode of at least three independent experiments): 4 µM; MBC (A. baumannii ATCC 19606 [4]; A. baumannii ATCC 19606, ≥99.9% reduction of viability, after 18 h at 37 °C, mode of at least three independent experiments): 4 µM; MBC (E. faecium ATCC 19434 [5]; E. faecium ATCC 19434, ≥99.9% reduction of viability, after 18 h at 37 °C, mode of at least three independent experiments): >64 µM; MBC (P. aeruginosa ATCC 27853 [6]; P. aeruginosa ATCC 27853, ≥99.9% reduction of viability, after 18 h at 37 °C, mode of at least three independent experiments): 16 µM; MIC (E. cloacae ATCC 13047 [7]; E. cloacae ATCC 13047, full MHB, 18 h at 37 °C, mode of at least three independent experiments): 8 µM; MIC (E. coli ATCC 25922 [9]; E. coli ATCC 25922, full MHB, 18 h at 37 °C, mode of at least three independent experiments): 1 µM; MBC (E. cloacae ATCC 13047 [10]; E. cloacae ATCC 13047, ≥99.9% reduction of viability, after 18 h at 37 °C, mode of at least three independent experiments): 16 µM; MBC (S. aureus ATCC 25923 [11]; S. aureus ATCC 25923, ≥99.9% reduction of viability, after 18 h at 37 °C, mode of at least three independent experiments): 16 µM; MIC (E. faecium ATCC 19434 [12]; E. faecium ATCC 19434, full MHB, 18 h at 37 °C, mode of at least three independent experiments): 32 µM; MIC (P. aeruginosa ATCC 27853 [13]; P. aeruginosa ATCC 27853, full MHB, 18 h at 37 °C, mode of at least three independent experiments): 16 µM
2 | WRIRRRWPRLPRPRWRPLPFPR [Peptide B7-B6] | 1 | 1 | 2 | 8 | 10,1 µM | >64 | 16 | 2 | 1,6 µM | 4 | 16 | 8 | 10,1 µM | 1 | MBC (E. coli ATCC 25922 [2]; ATCC 25922, 18 h): 2 µM; MBC (geometric mean) (E. coli ATCC 25922 [2]; ATCC 25922, 18 h): 1,6 µM; MIC (E. faecium ATCC 19434 [12]; ATCC 19434, 18 h): 8 µM; MIC (geometric mean) (E. faecium ATCC 19434 [12]; ATCC 19434, 18 h): 10,1 µM
3 | WRIRRRWPRLPRPRWRPLPFPRPGPRP [Peptide B7-B11] | 1 | 0.5 | 1 | 16 | 20,2 µM | >64 | 16 | 1 | 0,8 µM | 4 | 32 | 16 | 12,7 µM | 1 | MBC ([3]; ATCC 700603, 18 h): 8 µM; MBC (geometric mean) ([3]; ATCC 700603, 18 h): 6,3 µM; MBC (A. baumannii ATCC 19606 [4]; ATCC 19606, 18 h): 2 µM; MBC (geometric mean) (P. aeruginosa ATCC 27853 [6]; ATCC 27853, 18 h): 20,2 µM; MIC (E. cloacae ATCC 13047 [7]; ATCC 13047, 18 h): 2 µM; MBC (geometric mean) (S. aureus ATCC 25923 [11]; ATCC 25923, 18 h): 40,3 µM; MIC [16]: 2 µM; MIC (geometric mean) (A. baumannii ATCC 19606 [15]): 0,8 µM
